Read-outs that look alike come from different tables or passages of the source.
How the values were obtained:
F508del-CFTR = F508del-CFTR (Homo sapiens, UniProt P13569, DEL508-508); assay: 24 h co-incubation with correctors, YFP-based functional assay on F508del-CFTR CFBE41o- cells; assay type: cell-based; parameters: expressed in transfected cells; details: 39 5 μM with VX-809 1 μM or ARN23765 10 nM
Method: Recent studies have shown that most potentiators have an undesired activity on F508del-CFTR protein processing/trafficking.[39],[40] According to these studies, chronic incubation with potentiators results in decreased activity of VX-809 as a corrector. To test the effect of our potentiators, we incubated F508del-CFTR CFBE41o-cells for 24 h with tetrahydro-γ-carboline 39 (5 μM) together with VX-809 (1 μM) and ARN23765 (10 nM), the picomolar affinity corrector recently reported by our research team.[35] […]
Prior assay, cells were washed with phosphate-buffered saline (PBS) containing (in mM) 137 NaCl, 2.7 KCl, 8.1 Na2HPO4, 1.5 KH2PO4, 1 CaCl2, and 0.5 MgCl2. […] Cells were then transferred to microplate readers (FluoStar Optima; BMG Labtech, Offenburg, Germany) for CFTR activity determination. The plate readers were equipped with high-quality excitation (HQ500/20X: 500 ± 10 nm) and emission (HQ535/30M: 535 ± 15 nm) filters for YFP (Chroma Technology). The assay consisted of a continuous 14 s fluorescence reading, 2 s before and 12 s after injection of 165 μL of an iodide-containing solution (PBS with Cl^– replaced by I^–; final I^– concentration 100 mM). Data were normalized to the initial background-subtracted fluorescence. […]

[1] = Lung tissue distribution after a single oral dose to rats; assay type: in vivo; details: Sprague-Dawley, rat, p.o., 10 mg/kg
Method: Taking into account both the encouraging results in rescuing the gating defect in mutant CFTR in both primary and secondary biological assays, and the promising in vivo PK profile, we quantified the amount of compound 39 in rat lung tissue, the main target organ for CF treatment. The lung tissue distribution of potentiator 39 was investigated following administration of a single oral dose of 10 mg/kg to Sprague–Dawley rats. Supported by the data obtained in the pharmacokinetic study after oral administration, two time points (2 and 4 h) were selected for collecting plasma and lung tissue samples. The mean concentration vs. time profiles of compound 39 in plasma and lung tissue are reported in Figure S2 (see the Supporting Information).
Three animals per dose and timing were treated. Compound 39 was dissolved in PEG400/Tween80/saline solution at 10/10/80% in volume and administered orally at a dose of 10 mg/kg. After 120 and 240 min, rats were sacrificed and lungs were immediately dissected, frozen on dry ice, and stored at −80 °C until analysis. Lung samples were homogenized in RIPA buffer (150 mM NaCl, 1.0% Triton X-100, 0.5% sodium deoxycholate, 0.1% sodium dodecyl sulfate, 50 mM Tris, and pH 8.0) and then split into two aliquots kept at −80 °C until analysis. An aliquot was used for compound lung-level evaluations. The second aliquot was kept for protein content evaluation using the bicinchoninic acid assay (Thermo Scientific, Rockford, IL, USA).
Plasma samples were centrifuged at 21,100g for 15 min at 4 °C, while homogenized lung samples were vigorously whirled. An aliquot of each sample was extracted (1:3) with cold CH3CN containing 200 nM of an appropriate internal standard being a close analogue of the parent compound. A calibration curve was prepared in both blank mouse plasma and naïve lung homogenate over a 1 nM to 10 μM range. Three quality controls were prepared by spiking the parent compound in both blank mouse plasma and naïve lung homogenate to 20, 200, and 2000 nM as final concentrations. The calibrators and quality controls were extracted (1:3) with the same extraction solution as the plasma and lung samples. The plasma and lung samples, the calibrators, and quality controls were centrifuged at 3270g for 15 min at 4 °C. The supernatants were further diluted (1:1) with H2O and analyzed by LC/MS–MS on a Waters ACQUITY UPLC/MS TQD system consisting of a TQD mass spectrometer equipped with an electrospray ionization interface and a photodiode array eλ detector. Electrospray ionization was applied in the positive mode. […] All samples (plasma and lung samples, calibrators, and quality controls) were quantified by MRM peak area response factor in order to determine the levels of the parent compound in plasma and lung. […]

[2] = lung, read-out: concentration in the lungs

F508del-CFTR, sequence (P13569 with tags, fused parts or gaps DEL508-508): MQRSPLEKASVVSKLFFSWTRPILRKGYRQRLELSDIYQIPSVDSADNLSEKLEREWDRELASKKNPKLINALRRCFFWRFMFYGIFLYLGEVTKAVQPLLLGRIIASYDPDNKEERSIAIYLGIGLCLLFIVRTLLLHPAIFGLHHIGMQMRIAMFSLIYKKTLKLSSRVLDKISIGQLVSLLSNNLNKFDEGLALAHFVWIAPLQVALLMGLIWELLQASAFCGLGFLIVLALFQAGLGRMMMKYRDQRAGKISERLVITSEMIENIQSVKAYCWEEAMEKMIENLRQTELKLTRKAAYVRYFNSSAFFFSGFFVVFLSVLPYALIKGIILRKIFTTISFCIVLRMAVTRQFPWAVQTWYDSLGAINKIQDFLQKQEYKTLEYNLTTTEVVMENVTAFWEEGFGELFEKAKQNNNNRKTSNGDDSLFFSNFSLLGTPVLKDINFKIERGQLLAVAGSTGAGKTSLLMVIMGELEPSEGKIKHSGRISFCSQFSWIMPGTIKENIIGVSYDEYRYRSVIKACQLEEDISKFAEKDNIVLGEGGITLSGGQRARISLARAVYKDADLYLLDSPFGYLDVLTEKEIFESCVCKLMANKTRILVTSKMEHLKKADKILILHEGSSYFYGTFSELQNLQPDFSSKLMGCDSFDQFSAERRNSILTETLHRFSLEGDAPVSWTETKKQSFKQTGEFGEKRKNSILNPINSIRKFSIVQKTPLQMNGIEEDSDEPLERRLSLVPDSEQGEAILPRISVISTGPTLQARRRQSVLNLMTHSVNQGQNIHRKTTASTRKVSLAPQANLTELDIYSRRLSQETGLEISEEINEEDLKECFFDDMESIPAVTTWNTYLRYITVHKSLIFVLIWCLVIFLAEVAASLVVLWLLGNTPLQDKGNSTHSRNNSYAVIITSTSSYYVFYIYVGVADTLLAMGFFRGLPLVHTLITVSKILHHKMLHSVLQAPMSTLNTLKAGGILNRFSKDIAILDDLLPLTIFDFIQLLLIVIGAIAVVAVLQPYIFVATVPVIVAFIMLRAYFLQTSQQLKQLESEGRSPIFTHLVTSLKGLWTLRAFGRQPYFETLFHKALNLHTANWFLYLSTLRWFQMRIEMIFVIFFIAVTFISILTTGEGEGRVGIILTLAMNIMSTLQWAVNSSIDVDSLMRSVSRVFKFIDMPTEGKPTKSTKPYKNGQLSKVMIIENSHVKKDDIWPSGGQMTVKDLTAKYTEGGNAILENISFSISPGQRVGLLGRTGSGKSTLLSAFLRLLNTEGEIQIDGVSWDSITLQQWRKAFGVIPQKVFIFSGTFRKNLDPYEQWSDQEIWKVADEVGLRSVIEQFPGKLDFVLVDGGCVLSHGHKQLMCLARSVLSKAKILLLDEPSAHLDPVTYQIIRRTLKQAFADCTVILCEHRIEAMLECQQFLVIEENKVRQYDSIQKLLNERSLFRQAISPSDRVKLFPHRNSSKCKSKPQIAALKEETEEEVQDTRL

Cc1ccc(F)c2[nH]c3c(c12)CN(C(=O)c1cc(C(F)(F)F)[nH]n1)[C@H](C)C3 [Compound 39, (R)-(6-Fluoro-3,9-dimethyl-1,3,4,5-tetrahydro-2H-pyrido[4,3-b]indol-2-yl)-(5-(trifluoromethyl)-1H-pyrazol-3-yl)methanone]
effect on rescue efficacy of VX-809 or ARN23765 (F508del-CFTR): did not affect the rescue efficacy | concentration at 2 h [1, 2]: 4500 ng/g | concentration at 4 h [1, 2]: 2200 ng/g | concentration at 2 h ([1]; plasma, read-out: plasma level): 1.03 µg/mL | concentration at 4 h ([1]; plasma, read-out: plasma level): 0.675 µg/mL

From publication PMC8011931, “Identification, Structure–Activity Relationship, and Biological Characterization of 2,3,4,5-Tetrahydro-1H-pyrido[4,3-b]indoles as a Novel Class of CFTR Potentiators” (Journal of Medicinal Chemistry, 2020)
